Test results reported in the SangsterLogP compilation.
Values belong to the compound of their own block, whether it stands above or below them. Square brackets hold non-standard residues; d marks the D form. Peptide text beside a SMILES is read from it. NMeF = CN[CH](Cc1ccccc1)C(=O)O

How the values were obtained:
[1] = method code SF-HPLC, from DOI: 10.1002/jccs.199500138
[2] = method code SF-HPLC, from DOI: 10.1002/jlac.1995199512306
[3] = method code SF-HPLC, from DOI: 10.2174/1871523013666141114203105, PMID: 25403255; details: pH 7.4
[4] = method code SF-RC, from DOI: 10.1023/a:1015867608405, PMID: 1614980; details: pH 7.4
[5] = method code SF, from PMID: 26783178
[6] = not given; remark: listed apart in the source
[7] = from Ganellin, C.; Brown, T.; Griffiths, R.; Jones, M.; Mitchell, C.; Rana, K.; Saunders, D.; Smith, I.; Sore, E.; Wilks, J.; Young, R. (1991). Use of partition coefficients as a model for brain …
[8] = not given; remark: listed apart in the source
[9] = not given; remark: listed apart in the source

logP: 6.3
Structure (SMILES): CCCCCCCCc1ccc(OCC(=O)Cn2ccc3cc(C(=O)O)ccc32)cc1

logD [4]: 3.24
Structure (SMILES): CNC(=O)C(Cc1ccccc1)N(C)C(=O)C(Cc1ccccc1)N(C)C(=O)C(Cc1ccccc1)N(C)C(C)=O (stereo not given) (Ac-[NMeF]-[NMeF]-[NMeF]-NHMe; configuration not given here)

logD [4]: 2.92
Structure (SMILES): CC(=O)N(C)C(Cc1ccccc1)C(=O)N(C)C(Cc1ccccc1)C(=O)N(C)C(Cc1ccccc1)C(N)=O (stereo not given) (Ac-[NMeF]-[NMeF]-[NMeF]-NH2; configuration not given here)

logP [5]: 3.64
Structure (SMILES): O=C1[C@H](CC[C@H](O)c2ccc(F)cc2)[C@@H](c2ccc(O)cc2)N1c1ccc(F)cc1

logP [6]: 3.45
Structure (SMILES): COc1ccc(C(=O)C2c3cccc(O)c3C(=O)c3c(O)cccc32)cc1OC

logP [7]: 2.58
Structure (SMILES): COc1cccnc1CCCCNc1nc(=O)c(Cc2ccc(C)nc2)c[nH]1

logP [8]: 9.2
Structure (SMILES): CCCCCCCCCCCCCCCCCc1cc(O)cc(O)c1

logP [8]: 10.9
Structure (SMILES): CCCCCCCCCCCCCCCCCCCc1cc(O)cc(O)c1

logP [2]: 0.91
Structure (SMILES): Cc1cn(C2CC(N=[N+]=[N-])C(COP(=O)(OCc3ccc(C#N)cc3)OCC3OC(n4cc(C)c(=O)[nH]c4=O)CC3N=[N+]=[N-])O2)c(=O)[nH]c1=O (stereo not given)

logP [9]: 10.2
Structure (SMILES): C=C1CC[C@H](O)C/C1=C/C=C1\CCC[C@]2(C)[C@@H]([C@H](C)CCCC(C)C)CC[C@@H]12

logP [1]: 2.72
Structure (SMILES): CC(=O)OC1CCC2(C)C3=CCC4(C)C(C(C)CCC=C(C)C(=O)O)CC(O)C4(C)C3=CCC2C1(C)C (stereo not given)

logP: 6.2
Structure (SMILES): CCCCCCCCc1ccc(OCC(=O)Cn2cc(C(=O)OC)c3cc(C(=O)O)ccc32)cc1

logD [4]: 2.63
Structure (SMILES): CC(=O)NC(Cc1ccccc1)C(=O)NC(Cc1ccccc1)C(=O)N(C)C(Cc1ccccc1)C(N)=O (stereo not drawn) (Ac-Phe-Phe-[NMeF]-NH2; configuration not given here)

logD [3]: 5.13
Structure (SMILES): C=CCc1ccc(OC(=O)COC(=O)Cc2ccccc2Nc2c(Cl)cccc2Cl)c(OC)c1

The next lines start with the compound.

Structure (SMILES): CC(=O)O[C@@H]1C[C@@H]([C@@H](C)CC/C=C(\C)C(=O)O)[C@]2(C)CC=C3C(=CCC4C(C)(C)[C@H](O)CC[C@@]34C)[C@@]12C (stereo not given in full)
logP [1]: 2.71

Structure (SMILES): Cc1cn(C2CC(N=[N+]=[N-])C(COP(=O)(OCc3cccc([N+](=O)[O-])c3)OCC3OC(n4cc(C)c(=O)[nH]c4=O)CC3N=[N+]=[N-])O2)c(=O)[nH]c1=O (stereo not given)
logP [2]: 0.99

Structure (SMILES): COc1ccccc1OC(=O)COC(=O)Cc1ccccc1Nc1c(Cl)cccc1Cl
logD [3]: 4.6

Structure (SMILES): Cc1ccc(N2C(=O)[C@H](CCCNS(=O)(=O)c3ccc(OC(F)(F)F)cc3)[C@H]2c2ccc([N+](=O)[O-])cc2)cc1
logP [5]: 4.55

Structure (SMILES): COc1ccc(C(=O)C2c3cccc(O)c3C(=O)c3c(O)cccc32)cc1
logP [6]: 3.74

Structure (SMILES): COc1cc(C=O)ccc1OC(=O)COC(=O)Cc1ccccc1Nc1c(Cl)cccc1Cl
logD [3]: 4.86

Structure (SMILES): CCCOc1ccc(C(=O)C2c3cccc(O)c3C(=O)c3c(O)cccc32)cc1
logP [6]: 3.44

Structure (SMILES): Cc1cn(C2CC(N=[N+]=[N-])C(COP(=O)(OCc3ccccc3)OCC3OC(n4cc(C)c(=O)[nH]c4=O)CC3N=[N+]=[N-])O2)c(=O)[nH]c1=O (stereo not given)
logP [2]: 1.34

Structure (SMILES): CC(=CCCC(C)C1CC(O)C2(C)C3=CCC4C(C)(CCC(O)C4(C)C)C3=CCC12C)C(=O)O (stereo not given)
logP [1]: 2.69

Structure (SMILES): CC1=C(C/C=C(\C)CCC[C@H](C)CCC[C@H](C)CCCC(C)C)C(=O)c2ccccc2C1=O
logP [9]: 11.7

Structure (SMILES): CN(C)Cc1ccc(CSCCNc2nc(=O)c(Cc3ccc4ccccc4c3)c[nH]2)o1
logP [7]: 4.57

Structure (SMILES): c1cc(CN2CCCCC2)cc(OCCCNc2nc3ccccc3s2)c1
logP [7]: 5.41

Structure (SMILES): CCCCCCCCCCCCCCCc1cc(O)cc(O)c1
logP [8]: 7.4

Structure (SMILES): CC(C)CCC[C@@H](C)[C@H]1CC[C@H]2C3=CC=C4C[C@@H](O)CC[C@]4(C)[C@H]3CC[C@]12C
logP [9]: 8.65

Structure (SMILES): CCc1ccc(S(=O)(=O)NCCCC2C(=O)N(c3ccc(C)cc3)C2c2ccc(NS(C)(=O)=O)cc2)cc1 (stereo not given)
logP [5]: 3.62

Structure (SMILES): CCCCCCCCc1ccc(OCC(=O)Cn2cc(C(=O)C(C)C)c3cc(C(=O)O)ccc32)cc1
logP: 6.6
